Reference: patent US7335725B2, “Lipopeptides as antibacterial agents” (priority 1999, dated 2008)

Assays:
E. faecalis = assay: MIC by NCCLS broth microdilution, E. faecalis; type: cell-based; conditions: Mueller-Hinton Broth with 50 mg/L Ca2+, 37° C.
Procedure: (§1) Compounds were dissolved in 100% dimethyl sulfoxide and were diluted to the final reaction concentration (0.1 μg/mL-100 μg/mL) in microbial growth media. In all cases the final concentration of dimethyl sulfoxide incubated with cells is less than or equal to 1%. […] The optical densities (OD) of the bacterial cells, which measures bacterial cell growth and proliferation, were measured using a commercial plate reader. The MIC value is defined as the lowest compound concentration inhibiting growth of the test organism.

S. aureus = assay: MIC by NCCLS broth microdilution, S. aureus; type: cell-based; conditions: Mueller-Hinton Broth with 50 mg/L Ca2+, 37° C.
Procedure: as §1

Substance: Boc-protected daptomycin α,β-tridecenoyl amide [Compound 110]
- MIC (μg/ml) E. faecalis (E. faecalis): ++ (an MIC (μg/ml) or an ED50 (mg/kg) of more than 1 μg/ml or 1 mg/kg, respectively, but less than or equal to 10 μg/ml or 10 mg/kg, respectively)
- MIC (μg/ml) S. aureus (S. aureus): +++ (the compound has an MIC (μg/ml) of 1 μg/ml or less)
